Results as given in ChEMBL document CHEMBL1126487, “Induction of reversible protein-linked DNA breaks in human osteogenic sarcoma cells by novel cytocidal colchicine derivatives which inhibit DNA topoisomerase II in vitro: Absence of cross-resistance in a colchicine-resistant sub-clone” (Bioorg Med Chem Lett, 1993).

Experiments:
HOS = assay: Effective concentration required to inhibit growth of sub clone Hos colR cells; assay type: functional, cell-based; details: Homo sapiens
[1] = Toxicity against human Osteogenic sarcoma (Hos)cells; details: read-out: LD50 (the source's name)

SMILES | EC50 (HOS) [µM] | CC50 [1] [µM]
O=C(N[C@H]1CCc2cc(O)c(O)c(O)c2-c2ccc(=O)c(O)cc21)C(F)(F)F | 26 | 14
O=C(N[C@H]1CCc2cc(O)c(O)c(O)c2-c2ccc(=O)c(O)cc21)c1cc(O)c(O)c(O)c1 | 28 | 18
